Reference: ChEMBL document CHEMBL6087448, “Eradication of Therapy-Resistant Cancer Stem Cells by Novel Telmisartan Derivatives” (J Med Chem, 2025)
Values after ≈ are worked out from the molar mass of the structure shown. Active and inactive are the calls of the source. No cut-off for these calls is given here.

Key:
[1] = Toxicity in female NOD/SCID mouse xenografted with human K562-r cells assessed as body weight loss at 10 mg/kg, po administered once daily for 30 days; assay type: organism-based; settings: in vivo, 720 h, time 30 day
[2] = test system: Docetaxel-resistant PC-3 cell; test: Inhibition of side population phenotype in human Docetaxel-resistant PC-3 cell expressing ABCB1 at 10 uM incubated for 90 mins by DCV staining based flow cytometric analysis; assay type: functional
[3] = test system: A549; test: Effect on STAT5 protein expression in human A549 cells at 10 uM incubated for 72 hrs by Western blotting based immunoassay; assay type: functional, cell-based
[4] = test system: Paclitaxel-resistant A2780; test: Inhibition of STAT5 phosphorylation in human Paclitaxel-resistant A2780 cells expressing ABCB1 at 10 uM incubated for 72 hrs by Western blotting based immunoassay; assay type: cell-based
[5] = test system: K-562R; test: Antitumor activity against human K562-r cells xenografted in female NOD/SCID mouse model assessed as tumor growth inhibition at 10 mg/kg, po co-administered with imatinib once daily for 30 days; assay type: functional, organism-based; settings: time 30.0 day
[6] = test system: K-562R; test: Antitumor activity against human K562-r cells xenografted in female NOD/SCID mouse model assessed as reduction in tumor volume by measuring treatment to control ratio at 10 mg/kg, po co-administered with imatinib once daily and measured after 33 days relative to control; assay type: functional; settings: time 33 day
[7] = test system: PBMC; test: Effect on colony formation in human PBMC derived from healthy donors at 10 uM measured after 2 weeks by inverted microscopic analysis; assay type: functional, cell-based
[8] = test system: MCF7; test: Effect on STAT5 protein expression in human MCF7 cells at 10 uM incubated for 72 hrs by Western blotting based immunoassay; assay type: functional, cell-based
[9] = test system: A2780/Taxol; test: Sensitization of paclitaxel-induced cytotoxicity against human Paclitaxel-resistant A2780 cells assessed as reduction in metabolic activity at 10 uM measured after 72 hrs by MTT assay; assay type: functional, cell-based
[10] = (§1) Inhibition of side population phenotype in human K562-r cells at 10 uM incubated for 90 mins by DCV staining based flow cytometric analysis relative to control; assay type: functional; settings: K-562R
[11] = test system: Docetaxel-resistant DU145 cell; test: Enhancement of docetaxel-induced anti-metabolic activity against human Docetaxel-resistant DU145 cell assessed as reduction in metabolic activity at 10 uM measured after 72 hrs by MTT assay; assay type: functional, cell-based
[12] = test system: Docetaxel-resistant DU145 cell; test: Inhibition of side population phenotype in human Docetaxel-resistant DU145 cell expressing ABCB1 at 10 uM incubated for 90 mins by DCV staining based flow cytometric analysis; assay type: functional
[13] = test system: K-562R; test: Antitumor activity against human K562-r cells xenografted in female NOD/SCID mouse model assessed as reduction in tumor volume at 10 mg/kg, po co-administered with imatinib once daily and measured after 15 to 26 days; assay type: functional, organism-based; settings: time 15-26 day
[14] = Toxicity in female NOD/SCID mouse xenografted with human K562-r cells assessed as body weight loss at 10 mg/kg, po co-administered with imatinib once daily for 30 days; assay type: organism-based; settings: in vivo, 720 h, time 30 day
[15] = test system: PBMC; test: Inhibition of colony formation in human PBMC derived from TKI naive CML patients assessed as reduction in number of colonies at 1 uM incubated for 14 days in presence of imatinib by inverted microscopic analysis; assay type: functional, cell-based; settings: time 14.0 day
[16] = test system: K562-r; test: Inhibition of STAT5 phosphorylation in human K562-r cells at 4 uM measured after 72 hrs by Western blotting based immunoassay; assay type: cell-based
[17] = test system: PBMC; test: Effect on colony formation in human PBMC derived from healthy donors at 10 uM measured after 2 weeks in presence of imatinib by inverted microscopic analysis; assay type: functional, cell-based
[18] = test system: A549; test: Inhibition of side population phenotype in human A549 cells expressing ABCC1 at 10 uM incubated for 90 mins by DCV staining based flow cytometric analysis; assay type: functional, cell-based
[19] = test system: K562-r; test: Inhibition of STAT5 phosphorylation in human K562-r cells at 4 uM measured after 6 hrs in presence of imatinib by Western blotting based immunoassay; assay type: cell-based
[20] = test system: A2780/Taxol; test: Effect on STAT5 protein expression in human Paclitaxel-resistant A2780 cells expressing ABCB1 at 10 uM incubated for 72 hrs by Western blotting based immunoassay; assay type: functional, cell-based
[21] = test system: A549; test: Inhibition of STAT5 phosphorylation in human A549 cells at 10 uM incubated for 72 hrs by Western blotting based immunoassay; assay type: cell-based
[22] = test system: MCF7; test: Inhibition of side population phenotype in human MCF7 cells expressing ABCG2 at 10 uM incubated for 90 mins by DCV staining based flow cytometric analysis; assay type: functional, cell-based
[23] = test system: MCF7; test: Inhibition of STAT5 phosphorylation in human MCF7 cells at 10 uM incubated for 72 hrs by Western blotting based immunoassay; assay type: cell-based
[24] = test system: K562-r; test: Effect on STAT5 phosphorylation in human K562-r cells at 4 uM measured after 6 hrs by Western blotting based immunoassay; assay type: cell-based
[25] = test system: K-562R; test: Cytotoxicity against human K562-r cells assessed as reduction in metabolic activity at 10 uM incubated for 72 hrs by MTT assay; assay type: functional, cell-based
[26] = test system: COS-7; test: Cytotoxicity against African green monkey COS-7 cells assessed as reduction in metabolic activity at 10 uM incubated for 72 hrs by MTT assay; assay type: toxicity, cell-based; settings: chlorocebus aethiops, cos-7, 72 h
[27] = test system: K-562R; test: Effect on ABCB1 protein expression in human K562-r cells at 4 uM incubated for 72 hrs by Western blotting based immunoassay; assay type: functional, cell-based
[28] = test system: Paclitaxel-resistant IGROV-1 cell; test: Inhibition of side population phenotype in human Paclitaxel-resistant IGROV-1 cells expressing ABCB1 at 10 uM incubated for 90 mins by DCV staining based flow cytometric analysis; assay type: functional
[29] = test system: Paclitaxel-resistant IGROV-1 cell; test: Inhibition of STAT5 phosphorylation in human Paclitaxel-resistant IGROV-1 cells expressing ABCB1 at 10 uM incubated for 72 hrs by Western blotting based immunoassay
[30] = test system: A2780/Taxol; test: Inhibition of side population phenotype in human Paclitaxel-resistant A2780 cells expressing ABCB1 at 10 uM incubated for 90 mins by DCV staining based flow cytometric analysis; assay type: functional, cell-based
[31] = test system: K-562R; test: Restoration of imatinib accumulation in human K562-r cells at 10 uM preincubated with compound for 1 hrs followed by imatinib addition and measured after 2 hrs by UHPLC-SIM-MS analysis; assay type: functional, cell-based; settings: time 3.0 hrs
[32] = test system: K-562R; test: Antitumor activity against human K562-r cells xenografted in female NOD/SCID mouse model assessed as tumor growth inhibition at 10 mg/kg, po administered once daily for 30 days; assay type: functional, organism-based; settings: time 30.0 day
[33] = test system: Docetaxel-resistant PC-3 cell; test: Enhancement of docetaxel-induced anti-metabolic activity against human Docetaxel-resistant PC-3 cell assessed as reduction in metabolic activity at 10 uM measured after 72 hrs by MTT assay; assay type: functional, cell-based
[34] = test system: K-562R; test: Sensitization of imatinib-induced cytotoxicity against human K562-r cells assessed as reduction in metabolic activity at 0.5 to 10 uM measured after 72 hrs by MTT assay; assay type: functional, cell-based; settings: dose 0.5-10 µM
[35] = test system: K-562R; test: Enhancement of imatinib-induced anti-metabolic activity in human K562-r cells at 0.5 to 8 uM measured after 72 hrs by MTT assay relative to control; assay type: functional; settings: dose 0.5-8 µM
[36] = test system: Paclitaxel-resistant IGROV-1 cell; test: Downregulation of STAT5 protein expression in human Paclitaxel-resistant IGROV-1 cells expressing ABCB1 at 10 uM incubated for 72 hrs by Western blotting based immunoassay; assay type: functional
[37] = Permeability of compound; assay type: ADME; settings: not told; read-out: permeability
[38] = Intrinsic clearance in rat hepatocytes measured per 10^6 cells; assay type: ADME, cell-based, Hepatocyte; settings: read-out: CLH
[39] = test system: K-562R; test: as §1; assay type: functional
[40] = test system: Paclitaxel-resistant IGROV-1 cell; test: Enhancement of paclitaxel-induced anti-metabolic activity in human Paclitaxel-resistant IGROV-1 cells assessed as reduction in metabolic activity upto 300 nM measured after 72 hrs by MTT assay; assay type: functional, cell-based
[41] = Aqueous solubility of compound measured after 48 hrs by HPLC analysis; assay type: physicochemical; settings: buffer
[42] = test system: K-562R; test: Sensitization of imatinib-induced cytotoxicity against human K562-r cells assessed as cell viability at 10 uM measured after 72 hrs by MTT assay relative to control; assay type: functional; settings: read-out: Activity
[43] = Apparent permeability across apical to basolateral side in human Caco-2 cells at 10 uM by LC-MS/MS analysis
[44] = Apparent permeability across basolateral to apical side in human Caco-2 cells at 10 uM by LC-MS/MS analysis
[45] = test system: K-562R; test: Inhibition of side population phenotype in human K562-r cells at 0.1 to 10 uM incubated for 90 mins by DCV staining based flow cytometric analysis; assay type: functional, cell-based; settings: dose 0.1-10 µM
[46] = test system: A2780/Taxol; test: Cytotoxicity against human Paclitaxel-resistant A2780 cells assessed as metabolic activity at 10 nM measured after 72 hrs by MTT assay relative to control; assay type: functional
[47] = test system: K-562R; test: Antitumor activity against human K562-r cells xenografted in female NOD/SCID mouse model assessed as tumor growth inhibition at 50 mg/kg, po administered once daily for 30 days; assay type: functional, organism-based; settings: time 30.0 day
[48] = Toxicity in female NOD/SCID mouse xenografted with human K562-r cells assessed as body weight loss at 50 mg/kg, po administered once daily for 30 days; assay type: organism-based; settings: in vivo, 720 h, time 30 day

Structure (SMILES) | Activity [3] | inhibition [4] | Activity [7] | Activity [8] | Activity [9] | Activity [11] | inhibition [12] | inhibition [15] | inhibition [16] | Activity [17] | inhibition [18] | inhibition [19] | Activity [20] | inhibition [21] | inhibition [22] | inhibition [23] | Activity [24] | Activity [25] | Activity [26] | Activity [27] | other results
CCCc1nc2c(C)cc(-c3nc4ccccc4n3C)cc2n1Cc1ccc(-c2ccccc2C(N)=O)cc1 | inactive | Active | inactive | inactive | Active | Active | Active | Active | Active; Lesser Effect Observed | inactive | Active | Active | inactive | Active | Active | Active | inactive | inactive | Non-toxic | inactive | Activity [1]: Non-toxic; inhibition [2]: Active; Activity [5]: Active; Strongest Inhibition Observed; T/C [6]: 36%; inhibition at 10 µM [10]: 100%; Activity [13]: Active; Activity [14]: Non-toxic; inhibition [28]: Active; inhibition [29]: Active; inhibition [30]: Active; Activity [31]: Active; Activity [32]: Active; Activity [33]: Active
CCCc1nc2c(C)cc(-c3nc4ccccc4n3C)cc2n1Cc1ccc(-c2ccccc2C(=O)O)cc1 | inactive | Active | inactive | inactive | Active | inactive | Active; Modest Effect Observed | inactive | Active; Lesser Effect Observed | inactive | Active | Active | inactive | Active | Active | Active | inactive | inactive | Non-toxic | inactive | Activity [34]: Active; Marginal Enhancement Of Imatinib Activity Observed; Activity [35]: <50%; Activity [36]: Active; Papp [37]: 29 ×10⁻⁶ cm/s; hepatocyte CLint [38]: 23 µL/min/1e6 cells; inhibition [39]: inactive; Activity [40]: Active; solubility at 48 h [41]: 19.2 µM (≈ 9.88 µg/mL); inhibition [28]: Active; Modest Effect Observed; inhibition [29]: Active; inhibition [30]: Active; Modest Effect Observed; viability at 10 µM [42]: 34%; Activity [33]: Active; Marginal Activity Observed
CCCc1nc2c(C)cc(-c3nc4ccccc4n3C)cc2n1Cc1ccc(-c2ccccc2C(=O)OC)cc1 | inactive | Active | inactive | inactive | Active | Active | Active | Active | Active; Lesser Effect Observed | inactive | Active | Active | inactive | Active | Active | Active | inactive | inactive | Non-toxic | inactive | inhibition [2]: Active; Papp A→B at 10 µM [43]: 0.1 ×10⁻⁶ cm/s; inhibition at 10 µM [10]: 100%; Activity [40]: inactive; Papp B→A at 10 µM [44]: 0.2 ×10⁻⁶ cm/s; inhibition [28]: Active; inhibition [29]: inactive; inhibition [30]: Active; inhibition [45]: Active; Similar To Valspodar; Activity [31]: Active; Activity [33]: Active; Marginal Activity Observed
CC(=O)O[C@H]1C(=O)[C@@]2(C)[C@H]([C@H](OC(=O)c3ccccc3)[C@]3(O)C[C@H](OC(=O)[C@H](O)[C@@H](NC(=O)c4ccccc4)c4ccccc4)C(C)=C1C3(C)C)[C@]1(OC(C)=O)CO[C@@H]1C[C@@H]2O [PACLITAXEL] |  |  |  |  |  |  |  |  |  |  |  |  |  |  |  |  |  |  |  |  | Activity [46]: >80%
Cc1ccc(NC(=O)c2ccc(CN3CCN(C)CC3)cc2)cc1Nc1nccc(-c2cccnc2)n1 [IMATINIB] |  |  |  |  |  |  |  |  |  |  |  |  |  |  |  |  |  |  |  |  | Activity [47]: Active; Activity [48]: Non-toxic
